From patent US20200223826A1, “Glucose-6-Phosphate Dehydrogenase (G6PD)-Modulating Agents And Methods Of Treating G6PD Deficiency” (The Board of Trustees of the Leland Stanford Junior …, priority 2017, published 2020)
Marks after values point to notes of the source that are not given here.

Assays:
[1] = target: T1, wt G6PD obtained from a blood sample (Homo sapiens, UniProt P11413); test: G6PD enzyme activation on wt G6PD from a blood sample; assay type: biochemical; settings: 100 uM compound
T1 construct: tissue Stanford Blood Center; host or cells: blood / erythrocytes
T1 sequence (P11413 2-515 limits assumed): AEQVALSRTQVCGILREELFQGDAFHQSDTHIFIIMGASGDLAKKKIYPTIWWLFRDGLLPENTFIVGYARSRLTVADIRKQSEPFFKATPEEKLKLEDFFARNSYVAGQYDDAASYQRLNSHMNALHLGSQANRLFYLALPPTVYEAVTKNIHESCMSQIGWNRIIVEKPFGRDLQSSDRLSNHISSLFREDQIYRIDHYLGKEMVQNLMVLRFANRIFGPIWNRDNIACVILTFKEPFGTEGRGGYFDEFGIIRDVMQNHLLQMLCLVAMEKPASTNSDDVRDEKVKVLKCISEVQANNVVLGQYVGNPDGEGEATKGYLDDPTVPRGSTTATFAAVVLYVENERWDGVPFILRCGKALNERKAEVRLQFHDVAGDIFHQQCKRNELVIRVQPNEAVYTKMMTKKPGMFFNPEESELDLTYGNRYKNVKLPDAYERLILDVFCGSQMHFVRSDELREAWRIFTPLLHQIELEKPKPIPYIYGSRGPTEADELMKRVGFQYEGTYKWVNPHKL
Method: (§1) Enzyme activity was measured by monitoring NADPH production, which was coupled with diaphorase converting resazurin to fluorescent resorufin (excitation at 565 nm and emission at 590 nm); fluorescent signal was thus proportional to G6PD activity. Assays were performed at 25° C. and run for 5 minutes in buffer containing 50 mM Tris (pH 7.4), 0.5 mM EDTA, 3.3 mM MgCl2, 1 U/ml diaphorase, 0.1 mM resazurin. 10 ng of recombinant enzymes or 10 μg of cell lysates was used for the assay with 10 μM NADP^+ (Sigma) as cofactor and 100 μM G6P (Sigma) as substrate. […]
De-identified blood samples were obtained from the Stanford Blood Center. […] G6PD activity was measured (Beutler E. Red cell metabolism: A manual of biochemical methods (3rd edition). Grune & Stratton (1984)). […] Hemoglobin release in the supernatant was monitored by measuring absorbance at 540 nm. […] After wash, the samples were lysed with 0.1% Triton X-100 (final concentration), and the florescence was analyzed with excitation/emission at 485/525 nm. GSH measurement was determined using a Cayman glutathione assay kit (Cayman Chemicals, 703002). […] The absorbance was read at 412 nm. For storage assay, a 5% erythrocyte suspension was stored at 4° C. with and without 1 μM AG1, and hemolysis and G6PD activity were monitored every week for 28 days to examine whether AG1 improves preservation of erythrocytes over time. […]

[2] = test system: G6PD; test: G6PD activation activity, compounds with various linkers; assay type: biochemical; settings: 100 uM compound
Method: Enzyme activity was measured by monitoring NADPH production, which was coupled with diaphorase converting resazurin to fluorescent resorufin (excitation at 565 nm and emission at 590 nm); fluorescent signal was thus proportional to G6PD activity. Assays were performed at 25° C. and run for 5 minutes in buffer containing 50 mM Tris (pH 7.4), 0.5 mM EDTA, 3.3 mM MgCl2, 1 U/ml diaphorase, 0.1 mM resazurin. 10 ng of recombinant enzymes or 10 μg of cell lysates was used for the assay with 10 μM NADP^+ (Sigma) as cofactor and 100 μM G6P (Sigma) as substrate. […] Data analysis was performed using GraphPad Prism software v.6 (GraphPad Software, La Jolla, Calif. USA).

[3] = test system: point mutants of the Canton variant of G6PD; test: Effect of point mutations of Canton G6PD on compound activity; assay type: biochemical, human; settings: mutations on the side opposite the putative binding site
Method: The gene encoding wild-type (WT) G6PD was inserted into the pET-28a vector, using NdeI and SalI restriction sites by polymerase chain reaction (PCR). Site-directed mutagenesis to generate G6PD variants was performed using appropriate primer sets according to the manufacturer's guidelines (Agilent). All constructs were verified by sequencing.
as §1, with “substrate. Steady-state kinetic parameters were obtained by varying concentrations of NADP^+ (0-10 μM) with a constant concentration of G6P (100 μM) and similarly for G6P (0-100 μM) with a constant concentration of NADP^+ (10 μM) with 10 ng of recombinant enzymes. Data analysis was performed using GraphPad Prism software v.6 (GraphPad Software, La Jolla, Calif. USA). Kinetic parameters were obtained by fitting the data to the Michaelis-Menten equation.” for “substrate.”

[4] = target: T2, Canton G6PD (Homo sapiens, UniProt P11413, R459L); test: Canton G6PD enzyme activity, diaphorase-coupled assay; assay type: biochemical; settings: Canton G6PD
T2 construct: His (pET-28a) (N, cleaved yes); made in house; host or cells: E. coli C43 (DE3)
T2 sequence (P11413 whole entry R459L): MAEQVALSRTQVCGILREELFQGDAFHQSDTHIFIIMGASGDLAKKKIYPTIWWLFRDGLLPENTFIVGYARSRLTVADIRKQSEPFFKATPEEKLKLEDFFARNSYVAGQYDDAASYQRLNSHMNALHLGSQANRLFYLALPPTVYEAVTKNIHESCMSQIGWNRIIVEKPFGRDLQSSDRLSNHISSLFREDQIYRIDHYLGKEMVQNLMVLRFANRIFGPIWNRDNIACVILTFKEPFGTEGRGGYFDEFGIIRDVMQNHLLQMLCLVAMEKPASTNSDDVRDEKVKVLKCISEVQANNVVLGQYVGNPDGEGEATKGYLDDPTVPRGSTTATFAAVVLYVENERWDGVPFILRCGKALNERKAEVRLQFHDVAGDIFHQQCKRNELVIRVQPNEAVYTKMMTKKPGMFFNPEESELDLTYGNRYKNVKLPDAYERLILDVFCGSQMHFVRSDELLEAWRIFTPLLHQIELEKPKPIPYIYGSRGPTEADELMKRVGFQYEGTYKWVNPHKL
Method: (§2) Enzyme activity was measured by monitoring NADPH production, which was coupled with diaphorase converting resazurin to fluorescent resorufin (excitation at 565 nm and emission at 590 nm); fluorescent signal was thus proportional to G6PD activity. Assays were performed at 25° C. and run for 5 minutes in buffer containing 50 mM Tris (pH 7.4), 0.5 mM EDTA, 3.3 mM MgCl2, 1 U/ml diaphorase, 0.1 mM resazurin. 10 ng of recombinant enzymes or 10 μg of cell lysates was used for the assay with 10 μM NADP^+ (Sigma) as cofactor and 100 μM G6P (Sigma) as substrate. Steady-state kinetic parameters were obtained by varying concentrations of NADP^+ (0-10 μM) with a constant concentration of G6P (100 μM) and similarly for G6P (0-100 μM) with a constant concentration of NADP^+ (10 μM) with 10 ng of recombinant enzymes. Data analysis was performed using GraphPad Prism software v.6 (GraphPad Software, La Jolla, Calif. USA). Kinetic parameters were obtained by fitting the data to the Michaelis-Menten equation.
The diaphorase-coupled enzyme assay as described above was used to screen a library of compounds for small molecule activators. The compounds were added to Canton G6PD enzyme reaction mixture at a final concentration of 16.67 μM using Caliper Life Sciences Staccato system with a Twister II robot and a Sciclone ALH3000 (Caliper Life Sciences, Alameda, Calif. USA) integrated with a V&P Scientific pin tool, which was followed by incubation for 3 hours. Addition of G6P then initiated the reaction, which was run for 2.5 minutes. The fluorescent signals were recorded 4 times during the run using Molecular Devices AnalystGT (Molecular Devices, Sunnyvale, Calif. USA). Any compounds showing 30% activation of the enzyme were rescreened in a dose-dependent manner (0-30 μM, duplicate) to identify potential hits.
(§3) Based on preliminary results with compound AG1, a variety of compounds of interest were prepared and assessed in G6PD enzyme activation assays, according to the methods described herein.

[5] = target: T3, Canton W509A G6PD (Homo sapiens, UniProt P11413, R459L/W509A); test: Canton W509A G6PD enzyme activation; assay type: biochemical
T3 construct: His (pET-28a) (N, cleaved yes); made in house; host or cells: E. coli C43 (DE3)
T3 sequence (P11413 whole entry R459L/W509A): as the sequence (P11413 whole entry R459L) above, with W509A counted along it
Method: as §2, §3

[6] = test system: zebrafish embryos; test: Pericardial edema in zebrafish embryos; assay type: in vivo; settings: 50 μg/ml at 24 hpf
Method: Embryos were dechorinated with pronase at 24 hours post fertilization (hpf) and treated with 50 μg/ml of chloroquine and/or AG1 by directly adding the compounds to the well. For ROS measurements, embryos were incubated with compounds for 2 hours, and then the ROS detecting reagent (CM-H2DCFDA) was added at a final concentration of 500 ng/ml to the well for a total treatment time of 5 hours. One embryo was placed to each well of a black, opaque 96-well plate. The florescence was analyzed with excitation/emission at 485/525 nm. After ROS assays, embryos at about 32 hpf were pooled and lysed in buffer containing 50 mM Tris (pH 7.4), 150 mM NaCl, 1 mM EDTA, 0.1% NP-40, and protease inhibitor cocktail, which was followed by three cycles of freeze and thawing in liquid nitrogen. The lysate was centrifuged at 14,000 rpm at 4° C. for 15 minutes. Total protein concentration in the supernatants (total lysate) was determined by Bradford method. 50 μg of total lysate was loaded onto 10% SDS-PAGE gels and the protein level was examined by Western blot using anti-G6PD antibody (Abcam (G6PD: AB87230)). 10 μg of total lysate was used for enzymatic assay. 50 μg of the lysate was used to measure NADPH levels using a NADPH quantification kit (Biovision), according to the manufacturer's instructions.
Live embryos were anesthetized and mounted in 3% methylcellulose. Embryos were imaged with a Leica M205FA microscope equipped with a 1.0× Plan Apochromatic objective and a SPOT Flex camera or a Leica DM4500B compound microscope equipped with a QImaging Retiga-SRV camera. For hemoglobin staining, fixed embryos were stained with o-dianisidine as previously reported (10), cleared, mounted in 100% glycerol, and imaged with a Leica M205FA microscope equipped with a 1.0× Plan Apochromatic objective and a SPOT Flex camera. All images were captured using SPOT or MetaMorph imaging software (Diagnostic Imaging Inc.) and processed in Photoshop (Adobe). Adjustments were limited to brightness levels and cropping. Analysis was carried out by an observer blinded to the experimental conditions.

For “2-[2-(1H-indol-3-yl)ethylamino]ethanethiol [AG1]”, the “Enzyme activity (%)” value [1] was 127%, the “Enzyme activity (%)” value [2] was 156%^c and the “effect of mutations on AC50” value [3] was “no effect on AC50”.

`c1cc(CNCCc2ccc3c(c2)OCO3)c2c(CNCCc3ccc4c(c3)OCO4)cccc2c1` [AR4-078] showed an AC50 [4] of 74 µM, an Amax [4] of 2.0 and an enzyme activity at 100 µM [1] of 154%. For the same compound, the AC50 [5] was 58 µM and the Amax [5] was 3.8.

With `CCN(CC)CCCC(C)Nc1ccnc2cc(Cl)ccc12` (stereo not drawn) [chloroquine, reference compound] the “effect of chloroquine on embryos” value [6] was “led to pericardial edema and increased ROS levels”.
